From patent US5585373A, “3-(7'-oxo-1'-aza-4'-oxabicyclo[3.2.0]-hept-3'-YL)propionic acid derivative as antitumor agent” (priority 1994, dated 1996) come the findings set out here.

In brackets after ≈: the same amount, converted by molar mass.

The subject of one series is KB cells. The series is described as follows: In Vitro KB Cell Cytotoxicity Assay. The series is classed as cell-based. Conditions: Homo sapiens, 72 h, crystal violet staining, 3 days incubation. The protocol:
Pharmacological Test 1 (In Vitro KB Cell Cytotoxicity Assay)
The cytotoxicity against KB cells was determined in accordance with a protein staining method (Grillis et al., Anal. Biochem., 159, 109 (1986)) using crystal violet. Stated more specifically, KB cells were incubated in an Eagle's minimum medium containing 10% FCS in a CO2 incubator at 37° C. The number of the cells was counted with a hemocytometer. A 100 μl quantity of the cell suspension, 3×10^4 cells/ml, was placed into each well of a 96-well plate and incubated for 24 hours. Portions (100 μl) of the drug diluted to final concentrations of 10, 1, 0.1, 0.01 and 0.001 μg/ml were added, as one dosage, to three wells, respectively. A drug-free medium was added to the wells of the control group. After incubation for 3 days, 25 μl of 25% glutaraldehyde was added and fixed for 15 minutes, followed by washing with water and drying. A 100 μl quantity of 0.05% crystal violet was added for 15 minutes of staining, followed by washing with water and drying. Extraction was performed with 100 μl of 0.05M NaH2 PO4 /EtOH (1:1 volume ratio). The absorbance was measured at a wavelength of 540 nm with a multi-scan spectrophotometer. The percent cell growth inhibition was calculated based on the absorbance by the following equation [formula]
The IC50 value (concentration of the drug for inhibiting the cell growth by 50%) was calculated through log-logit transformation of the dose-response curve and linear regression.

The test system of a further series is Sarcoma 180. The experiment in a line: In Vivo Antitumor Activity against Sarcoma 180. Conditions: for Mortality in 12 days: intraperitoneal, every four days, three times, ICR mice; for Cell growth inhibition rate: ip. The protocol: Pharmacological Test 2 (In Vivo Antitumor Activity against Sarcoma 180)
5×10^6 cells of transplantable mouse tumor, Sarcoma 180, were subcutaneously transplanted in the dorsal portion of 6-week-old male ICR mice (6-7 mice in each group). The test drug was dissolved in physiological saline containing 0.25 % Tween 80 and 3.5% dimethyl sulfoxide. The solution was intraperitoneally administered to the mice every four days, starting the administration 24 hours after the transplantation, three times in total. On the 12th day after the transplantation, the tumors were removed from the bodies and weighed. The average weight of the tumors in the test group and the corresponding weight in the control group were calculated to determine the ratio of tumor growth inhibition.

Usually IC50 stands for the concentration at which inhibition is half-maximal. Lower therefore signals inhibition by little substance.

As for `O=C(OCc1ccccc1)[C@H](O)[C@@H](O)[C@H]1CN2C(=O)C[C@@H]2O1` [Compound 4, benzyl(2R,3R)-2,3-dihydroxy-3-[(3'R,5'S)-7'-oxo-1'-aza-4'-oxabicylo[3.2.0]hept-3'-yl]propionate], the midpoint of inhibition in the series on KB cells, the IC50, lay at 0.07 µg/mL (≈ 0.228 µM).

Turning to `O=C(OCc1ccccc1)[C@@H](O)[C@H](O)[C@H]1CN2C(=O)C[C@@H]2O1` [Compound 5, benzyl(2S,3S)-2,3-dihydroxy-3-[(3'R,5'S)-7'-oxo-1'-aza-4'-oxabicyclo[3.2.0]hept-3'-yl]propionate], in the series on KB cells, the IC50 worked out at 0.3 µg/mL (≈ 0.976 µM).

Regarding `O=C(OCc1ccccc1)[C@@H](O)[C@@H](O)[C@H]1CN2C(=O)C[C@@H]2O1` [Compound 6, benzyl (2S,3R)-2,3-dihydroxy-3-[(3'R,5'S)-7'-oxo-1'-aza-4'-oxabicylo[3.2.0]hept-3'-yl]propionate], the IC50 in the series with KB cells worked out at 0.09 µg/mL (≈ 0.293 µM).

As for `O=C(OCc1ccccc1)[C@H](O)[C@H](O)[C@H]1CN2C(=O)C[C@@H]2O1` [Compound 7, benzyl(2R,3S)-2,3-dihydroxy-3-[(3'R,5'S)-7'-oxo-1'-aza-4'-oxabicyclo[3.2.0]hept-3'-yl]propionate], the IC50 with KB cells stood at 0.09 µg/mL (≈ 0.293 µM).

Compound `CC(=O)O[C@@H]([C@H]1CN2C(=O)C[C@@H]2O1)[C@@H](N)C(=O)O` [Compound 12a, 3(R)-acetoxy-2(R)-amino-3-[(3'R,5'S)-7'-oxo-1'-aza-4'-oxabicyclo[3.2.0]hept-3'-yl]propionic acid] showed an IC50 with KB cells of 3 µg/mL (≈ 11.6 µM).

`N[C@@H](C(=O)O)[C@@H](OC(=O)c1ccccc1)[C@H]1CN2C(=O)C[C@@H]2O1` [Compound 12b, 2(R)-amino-3(R)-benzoyloxy-3-[(3'R,5'S)-7'-oxo-1'-aza-4'-oxabicyclo[3.2.0]hept-3'-yl]propionic acid]: the IC50 in the series on KB cells was determined as 0.3 µg/mL (≈ 0.937 µM). Besides, the “Mortality in 12 days” value in the series with Sarcoma 180 (5 mg/kg/day), in the series with Sarcoma 180 (10 mg/kg/day) and with Sarcoma 180 (20 mg/kg/day) was 0/7 each time. Moreover, the “Cell growth inhibition rate” value with Sarcoma 180 (5 mg/kg) turned out to be 19%; in the series on Sarcoma 180 (10 mg/kg) it was 19%; in the series with Sarcoma 180 (20 mg/kg), 31%.

For `CO[C@H]([C@H](N)C(=O)O)[C@H]1CN2C(=O)C[C@@H]2O1` [Compound 32a, 3-[(3'R,5'S)-7'-oxo-1'-aza-4'-oxabicyclo[3.2.0]hept-3'-yl]-2(S)-amino-3(R)-methoxypropionic acid], inhibition in the series on KB cells was half-maximal at 0.03 µg/mL (≈ 0.13 µM) (IC50).

For `N[C@H](C(=O)O)[C@@H](OCc1ccccc1)[C@H]1CN2C(=O)C[C@@H]2O1` [Compound 32b, 3-[(3'R,5'S)-7'-oxo-1'-aza-4'-oxabicyclo[3.2.0]hept-3'-yl]-2(S)-amino-3(R)-benzyloxypropionic acid], half-maximal inhibition with KB cells (IC50) required 0.06 µg/mL (≈ 0.196 µM). Besides, the “Mortality in 12 days” value with Sarcoma 180 (0.1 mg/kg/day) and in the series with Sarcoma 180 (1.0 mg/kg/day) was 0/6 throughout. Further, the results for the “Cell growth inhibition rate” value in the series with Sarcoma 180 (0.1 mg/kg) and in the series on Sarcoma 180 (1 mg/kg) were 12% and 38%, respectively.

As for `N[C@H](C(=O)O)[C@@H](OCc1ccc(F)cc1)[C@H]1CN2C(=O)C[C@@H]2O1` [Compound 32c, 3-[(3'R,5'S)-7'-oxo-1'-aza-4'-oxabicyclo[3.2.0]hept-3'-yl]-2(S)-amino-3(R )-(4"-fluorobenzyl)oxy-propionic acid], in the series on KB cells, half-maximal inhibition (IC50) required 0.04 µg/mL (≈ 0.123 µM).

`COc1ccc(CO[C@H]([C@H](N)C(=O)O)[C@H]2CN3C(=O)C[C@@H]3O2)cc1` [Compound 32d, 3-[(3'R,5'S)-7'-oxo-1'-aza-4'-oxabicyclo[3.2.0]hept-3'-yl]-2(S)-amino-3(R)-(4"-methoxybenzyl)oxypropionic acid] registered an IC50 in the series with KB cells of 0.09 µg/mL (≈ 0.268 µM).

`N[C@H](C(=O)O)[C@@H](OCC1CC1)[C@H]1CN2C(=O)C[C@@H]2O1` [Compound 32e, 3-[(3'R,5'S)-7'-oxo-1'-aza-4'-oxabicyclo[3.2.0]hept-3'-yl]-2(S)-amino-3(R )-cyclopropylmethyloxypropionic acid]: the IC50 with KB cells turned out to be 0.4 µg/mL (≈ 1.48 µM). This IC50 lies about 4.4-fold higher than the previous one.

Regarding `O=C(OC(c1ccccc1)c1ccccc1)[C@H]([C@@H](OCc1ccccc1)[C@H]1CN2C(=O)C[C@@H]2O1)N(Cc1ccccc1)C(=O)OCc1ccccc1` [Compound 42, diphenylmethyl 3-[(3'R,5'S)-7'-oxo-1'-aza-4'-oxabicyclo[3.2.0]hept-3'-yl]-2(S)-(N-benzyloxycarbonyl-N-benzyl)amino-3(R)-benzyloxypropionate], the IC50 with KB cells came out at 3 µg/mL (≈ 4.31 µM).

As to `O=C(OC(c1ccccc1)c1ccccc1)[C@H]([C@@H](OCc1ccccc1)[C@H]1CN2C(=O)C[C@H]2O1)N(Cc1ccccc1)C(=O)OCc1ccccc1` [Compound 43, diphenylmethyl 3-[(3'R,5'R)-7'-oxo-1'-aza-4'-oxabicyclo[3.2.0]hept-3'-yl]-2(S)-(N-benzyloxycarbonyl-N-benzyl)amino-3(R)-benzyloxypropionate], in the series with KB cells, the IC50 was found to be 3 µg/mL (≈ 4.31 µM).
